pKi: −log10 of the molar value.
What follows are compounds tested against Voltage-dependent L-type calcium channel subunit alpha-1C (Sus scrofa) (assay: Inhibition of [3H]nitrendipine binding to L-type calcium channel dihydropyridine site of porcine cardiac sarcolemma membrane vesicles).

| SMILES | pKi |
| --- | --- |
| CCOC(=O)C1=C(C)N=C(C)C(=C(O)OCC)C1c1cc([N+](=O)[O-])ccc1SC (centres undefined) | 7.10 |
| CCOC(=O)[C@H]1[C@H]2/C(=C(\O)OCC)C(C)=N[C@]1(C)Sc1ccccc12 | 5.30 |
| CCOC(=O)[C@@H]1[C@H]2/C(=C(\O)OCC)C(C)=N[C@]1(C)Sc1cc([N+](=O)[O-])ccc12 | 5.52 |
| CCOC(=O)[C@H]1[C@H]2/C(=C(\O)OCC)C(C)=N[C@]1(C)Sc1cc([N+](=O)[O-])ccc12 | 5.30 |
| CCOC(=O)[C@H]1[C@H]2/C(=C(\O)OCC)C(C)=N[C@]1(C)Sc1ccc([N+](=O)[O-])cc12 | 6.19 |
| CCOC(=O)[C@H]1[C@H]2/C(=C(\O)OCC)C(C)=N[C@]1(C)Sc1c2cccc1[N+](=O)[O-] | 6.60 |
| CCOC(=O)[C@@H]1[C@H]2/C(=C(\O)OCC)C(C)=N[C@]1(C)Sc1ccccc12 | 6.30 |
| CCOC(=O)[C@@H]1[C@H]2/C(=C(\O)OCC)C(C)=N[C@]1(C)Sc1ccc([N+](=O)[O-])cc12 | 7.52 |
| CCOC(=O)[C@@H]1[C@H]2/C(=C(\O)OCC)C(C)=N[C@]1(C)Sc1c2cccc1[N+](=O)[O-] | 5.22 |

— BindingDB's records for doi:10.1021/jm00387a019 (1987)
